In paper PMC3898920 (PLoS ONE, 2014):

Assays:
[1] = co-administered RMP; trial protocol background; cited from earlier work
[2] = parameters: method as in earlier work; settings: study from the University of Cape Town; trial protocol background; cited from earlier work
[3] = Steady-state plasma pharmacokinetics of rifabutin and 25-O-desacetylrifabutin, alone and with lopinavir/ritonavir; settings: for AUC: AUCτ; for C0: pre-dose
[4] = South Africa, cited from earlier work
[5] = Adverse events during the trial
[6] = Plasma lopinavir and ritonavir pharmacokinetics during rifabutin co-administration; settings: for Effect of the different doses of rifabutin on plasma concentrations: rifabutin 150 mg OD vs 150 mg TPW
[7] = rifabutin 150 mg OD with lopinavir/ritonavir, end of dosing interval 24 h, median (range)
[8] = rifabutin 150 mg OD with lopinavir/ritonavir, median (range)
[9] = rifabutin 150 mg TPW plus LPV/r vs rifabutin 300 mg OD alone
[10] = rifabutin 150 mg TPW with lopinavir/ritonavir, median (range)
[11] = rifabutin 300 mg OD alone, median (range)
[12] = rifabutin 150 mg OD plus LPV/r vs rifabutin 300 mg OD alone
[13] = All patients, pooled whatever the RBT dosing, median (range)
[14] = LPV/r 400 mg/100 mg twice daily with RBT 150 mg OD, median (range)
[15] = LPV/r 400 mg/100 mg twice daily with RBT 150 mg TPW, median (range)

## Cc1ccnc2c1NC(=O)c1cccnc1N2C1CC1 [NVP, nevirapine]
[1]
  Reduction of bioavailability by RMP: 35%

## CO[C@H]1/C=C/O[C@@]2(C)Oc3c(C)c(O)c4c(O)c(c(/C=N/N5CCN(C)CC5)c(O)c4c3C2=O)NC(=O)/C(C)=C\C=C\[C@H](C)[C@H](O)[C@@H](C)[C@@H](O)[C@@H](C)[C@H](OC(C)=O)[C@@H]1C [RMP, rifampicin]
[2]
  Reduction of drug concentrations by HIV infection: 39%

## 25-O-desacetylrifabutin [25-O desacetyl rifabutin]
[3]; [7]
  Cmin n = 15: 114 (73 – 253) ng/mL
  Cmin n = 25: 115 (59 – 253) ng/mL
[3]; [8]
  Tmax: 4 (2 – 8) h
[3]; [9]
  C0 geometric mean ratio (90% CI): 4.35 (3.14;6.02)
[3]; rifabutin 150 mg TPW with lopinavir/ritonavir, end of dosing interval 48 h, median (range)
  Cmin n = 15: 67 (11 – 214) ng/mL
[3]; [10]
  Tmax: 4 (2 – 6) h
[3]; rifabutin 300 mg OD alone, end of dosing interval 24 h, median (range)
  Cmin n = 15: 6 (0 – 33) ng/mL
[3]; [11]
  Tmax: 3 (0 – 5) h

## CO[C@H]1/C=C/O[C@@]2(C)Oc3c(C)c(O)c4c(c3C2=O)C2=NC3(CCN(CC(C)C)CC3)NC2=C(NC(=O)/C(C)=C\C=C\[C@H](C)[C@H](O)[C@@H](C)[C@@H](O)[C@@H](C)[C@H](OC(C)=O)[C@@H]1C)C4=O [Rifabutin]
[4]; 300 mg OD dose
  AUCτ, median: 3.053 µg·h/mL
[4]; intermittent dose (three times a week) with LPV/r
  Patients with areas under the curve less than 4.5 µg.h/mL: over 85%
[5]; 33 enrolled patients
  Uveitis: no uveitis
[5]; 33 enrolled patients, one grade 3, none grade 4
  Cases of neutropenia: 4
[5]; 33 enrolled patients, rifabutin-based TB treatment with d4T/3TC/LPV/r, whole follow-up
  Total adverse events (all grades together): 124
[5]; events occurring in 25 patients, 33 in the first 2 months, 23 after rifabutin was stopped
  Hepatic events with raised levels of liver enzymes: 56
[3]; 150 mg OD regimen with LPV/r
  Number of patients with AUCτ less than 4.5 µg.h/mL: one
[3]; 150 mg TPW regimen with LPV/r
  Number of patients with AUCτ less than 4.5 µg.h/mL: four
  Number of patients with Cmax less than 0.3 µg/mL: one
[3]; 300 mg OD regimen alone
  Number of patients with AUCτ less than 4.5 µg.h/mL: six
[3]; human, plasma, oral, 150 mg
  Tmax: 3 h
[3]; human, plasma, oral, 150 mg, rifabutin 150 mg OD with lopinavir/ritonavir, τ 24 h, median (range)
  AUC: 7.29 µg·h/mL
[3]; human, plasma, oral, 150 mg, rifabutin 150 mg TPW with lopinavir/ritonavir, τ 48 h, median (range)
  AUC: 7.34 µg·h/mL
[3]; human, plasma, oral, 150 mg, rifabutin 150 mg OD with lopinavir/ritonavir, median (range)
  Cmax: 0.671 µg/mL
[3]; human, plasma, oral, 150 mg, rifabutin 150 mg TPW with lopinavir/ritonavir, median (range)
  Cmax: 0.544 µg/mL
[3]; human, plasma, oral, 300 mg, rifabutin 300 mg OD alone, τ 24 h, median (range)
  AUC: 5.64 µg·h/mL
[3]; human, plasma, oral, 300 mg, rifabutin 300 mg OD alone, steady state, median (range)
  Cmax: 0.792 µg/mL
[3]; human, plasma, oral, Cmin n = 15, rifabutin 150 mg OD with lopinavir/ritonavir, end of dosing interval 24 h, median (range)
  concentration at 24 h: 0.161 µg/mL
[3]; human, plasma, oral, Cmin n = 15, rifabutin 150 mg TPW with lopinavir/ritonavir, end of dosing interval 48 h, median (range)
  concentration at 48 h: 0.054 µg/mL
[3]; human, plasma, oral, Cmin n = 15, rifabutin 300 mg OD alone, end of dosing interval 24 h, median (range)
  concentration at 24 h: 0.061 µg/mL
[3]; human, plasma, oral, Cmin n = 25, rifabutin 150 mg OD with lopinavir/ritonavir, end of dosing interval 24 h, median (range)
  concentration at 24 h: 0.169 µg/mL
[3]; human, plasma, oral, Cmin n = 25, rifabutin 300 mg OD alone, end of dosing interval 24 h, median (range)
  concentration at 24 h: 0.079 µg/mL
[3]; rifabutin 150 mg OD plus LPV/r (AUC24h) vs rifabutin 300 mg OD alone
  AUCτ geometric mean ratio (90% CI): 1.32 (1.16;1.51)
[3]; [12]
  C0 geometric mean ratio (90% CI): 2.61 (2.13;3.19)
  Cave geometric mean ratio (90% CI): 1.32 (1.16;1.51)
  Cmax geometric mean ratio (90% CI): 0.88 (0.75;1.04)
[3]; [8]
  Cave (AUCτ/τ): 304 (147–521) ng/mL
  C0: 180 (121 – 310) ng/mL
[3]; rifabutin 150 mg TPW plus LPV/r (AUC48h) vs rifabutin 300 mg OD alone
  AUCτ geometric mean ratio (90% CI): 1.12 (0.92;1.37)
[3]; [9]
  C0 geometric mean ratio (90% CI): 0.94 (0.73;1.21)
  Cave geometric mean ratio (90% CI): 0.56 (0.46;0.69)
  Cmax geometric mean ratio (90% CI): 0.65 (0.51;0.83)
[3]; rifabutin 150 mg TPW with LPV/r compared with rifabutin 300 mg alone
  Decrease in average steady state concentration (Cave): 44%
[3]; rifabutin 150 mg TPW with LPV/r vs rifabutin monotherapy
  Decrease in Cmax: 35%
[3]; [10]
  Cave (AUCτ/τ): 153 (30–227) ng/mL
  Tmax: 3 (0 – 5) h
  C0: 70 (25 – 413) ng/mL
[3]; rifabutin 150 mg daily with LPV/r compared with rifabutin 300 mg alone
  Mean increase in average steady state concentration (Cave): 32%
[3]; [11]
  Cave (AUCτ/τ): 235 (113–370) ng/mL
  C0: 74 (13 – 161) ng/mL
[3]; the two tested dosing regimens (150 mg OD, 150 mg TPW) combined with lopinavir/ritonavir
  Bioequivalence of Cave with rifabutin alone (90% CI within 0.80 to 1.25): failed to show bioequivalence

## O=C1Nc2ccc(Cl)cc2[C@@](C#CC2CC2)(C(F)(F)F)O1 [EFV, efavirenz]
[1]
  Reduction of bioavailability by RMP: approximately 25%

## Cc1cccc(C)c1OCC(=O)N[C@@H](Cc1ccccc1)[C@@H](O)C[C@H](Cc1ccccc1)NC(=O)[C@H](C(C)C)N1CCCNC1=O [Lopinavir]
[6]; [13]
  C0 (trough concentration): 8739 (<50– 31171) ng/mL
[6]; [14]
  C0 (trough concentration): 9155 (399–27567) ng/mL
[6]
  Effect of the different doses of rifabutin on plasma concentrations: no significant effect

## CC(C)c1nc(CN(C)C(=O)N[C@H](C(=O)N[C@@H](Cc2ccccc2)C[C@H](O)[C@H](Cc2ccccc2)NC(=O)OCc2cncs2)C(C)C)cs1 [Ritonavir]
[6]; [13]
  C0 (trough concentration): 303 (25–680) ng/mL
[6]; [14]
  C0 (trough concentration): 314 (25– 569) ng/mL
[6]; [15]
  C0 (trough concentration): 257 (25–680) ng/mL
  Cmax: 816 (405–2484) ng/ml
[6]
  Effect of the different doses of rifabutin on plasma concentrations: no significant effect
